Biological target: T1, ASGPR (Homo sapiens, UniProt P07306)
T1 sequence (P07306 1-291): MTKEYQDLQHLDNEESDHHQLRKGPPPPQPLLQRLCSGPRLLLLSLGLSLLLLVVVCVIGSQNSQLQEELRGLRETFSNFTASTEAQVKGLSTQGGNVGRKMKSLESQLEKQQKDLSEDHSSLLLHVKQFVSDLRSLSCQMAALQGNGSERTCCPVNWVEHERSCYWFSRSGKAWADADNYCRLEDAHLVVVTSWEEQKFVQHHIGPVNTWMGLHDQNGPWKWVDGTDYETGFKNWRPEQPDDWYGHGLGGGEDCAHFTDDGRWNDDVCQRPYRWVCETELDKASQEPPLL
Assay: Binding of targeting ligand formats to ASGPR
Settings: read-out: dissociation constants (Kd)
Text: In this example, multiple targeting ligand formats with varying affinities to ASGPR and off target receptors were compared. […] The high degree of over modification refers to modifying each Fab with more than 1 SATA molecule leading to multiple points of PEG-Mal conjugation during the final phase of ctLNP formulation and conjugation.

Kd: ~30.7 nM
Compound: CC(=O)N[C@H]1C(O)O[C@H](CO)[C@H](O)[C@@H]1O (stereo partly shown) [GalNAc]

From patent US20250281647A1, “STEALTH LIPID NANOPARTICLE COMPOSITIONS FOR CELL TARGETING” (Generation Bio Co., priority 2023, published 2025)
